From patent publication US20260152777A1, “METHOD FOR PRODUCING EPIGALLOCATECHIN GALLATE MONOGLUCOSIDE” (GIVAUDAN SA, priority 2022, published 2026)

What was measured:
Assay type in all cases: in vivo, human
[1] = system: Asian volunteers with dull skin and large senescence spots; experiment: Clinical study: skin biomechanical properties by Cutometer (R0, firmness); settings: for Firmness effect (R0) Mean +/− SD / Firmness effect (R0) Average variation (%) vs D 0: hemiface
From the text: For this study, volunteers applied the cream twice a day for 56 days.
GLYCOL, DIMETHICONE, FRAGRANCE
(§1) Volunteers were divided into two groups as follows: • Group 1: 20 Asian women testing the active cream in comparison to the placebo cream with an average age of 54±5 years. • Group 2: 18 Asian women testing the vitamin C cream in comparison to the placebo cream with an average age of 53±8 years.
(§2) Volunteers applied a cream containing 0.4% of active, 2% of ascorbic acid (vitamin C), respectively, on one hemiface and a placebo cream on the other hemiface […] for 56 days.
(§3) During this study, a skin color and spots analysis was conducted using Colorface®, biomechanical properties were tested using Cutometery®, and the dermis thickness was determined using a DUB SkinScanner 75® probe (max. depth of 3.28 mm).
The analysis of the mechanical properties of the skin enables to assess the functional state of the following tissue structures: • The elastic structures, such as elastic fibers, curvature of the connective bundles, wrinkles of the stratum corneum; and • the viscous-behaving structures, such as interstitial fluids, internal adherences.
The study was performed using a Cutometer® MPA 580 (Courage & Khazaka). The measuring principle is based on the suction method: Negative pressure is created in the device and the skin is drawn into a cylindrical aperture (2 mm in diameter) of the probe. Inside the probe, the penetration depth is determined by an optical measuring system. Each suction phase is followed by a relaxing phase.
In the present study, the following program was used: • Length of the cycle: 4 seconds • Suction: 2 seconds • Relaxation: 2 seconds • Negative pressure: 450 millibars • Diameter of the chamber: 2 mm • Area measured: crow's feet
From these curves, the parameters can be calculated. • During the suction phase, the deformation of the skin by the negative pressure measures first the elastic resistance and then the viscous component, which taken together represent skin firmness. • During the relaxation phase, the immediate recovery of the skin measures sheer cutaneous elasticity, whereas the delayed return of the skin to its initial position measures the viscoelastic component.
This study focused on the R0 or Uf parameter, which represents the amplitude of the skin during the suction phase. At equal pressure, the more flexible the skin, the greater the amplitude. Thus R0 (or UF) will evaluate the viscoelastic dispensability, or in other words, the firmness of the skin.
These parameters were measured on D0, D28, D56.

[2] = system: Asian volunteers with dull skin and large senescence spots; experiment: Clinical study: skin color analysis using Colorface (homogeneity, radiance, pigment defect); settings: for Pigment defect Mean +/− SD / Radiance Mean +/− SD / Pigment defect Average volume (mm^3) vs D 0 / Radiance Average variation (%) vs D 0: cream with 2% ascorbic acid, hemiface, Asian women; for pigment homogeneity, fold better than the placebo: vitamin C cream 2%
From the text: For this study, volunteers applied the cream twice a day for 56 days. […]
as §1, §2, §3
Skin color measurements were performed based on photos taken with the Colorface® acquisition system. Colorface® is a 2D acquisition system for taking standardized and multimodal photos of the entire face. The device is equipped with a 24M pixel sensor and also has a specific UV lamp. The acquisition methods are: UltraViolet, photo without filter, cross-polarized photo, parallel-polarized photo, standard 45° photo, and standard […].
An analysis of the radiance of the complexion, pigment spots, color (L*,a*,b* parameters) and melanin on the spots from photos using image analysis software was performed. 2D photos of the face were taken on D0, D28 and D56.

[3] = system: female Caucasian volunteers presenting brown spots on their hands; experiment: Clinical study: age-spot removal by Raman spectroscopy (skin background fluorescence, melanin detection); settings: for Melanin detection Mean +/− SD / Melanin detection TBX − TB0: hands, twice daily, Caucasian women
Description: A double blind and placebo controlled clinical evaluation was carried out on 45 female Caucasian volunteers aged from 45 to 75 years. The volunteers were presenting brown spots on their hands. All the subjects participating in the study gave their informed consent at the beginning of the study. […] At D0 and D56, the anti-spot efficacy was analyzed by Raman spectroscopy. The compositions described in Example 12 were used. The set-up included a confocal Raman probe coupled to a dispersive Raman spectrograph. The excitation laser beam was sent to the remote probe via a 5 μm core-diameter fiber and the Raman signal was conveyed to the spectrograph via a 100 μm core-diameter fiber. The probe was equipped with a 100× long working distance objective operating in air. A piezo-electric device allowed to collect Z Raman profiles by assuring axial measurements from the surface down to a defined depth in the skin. A color video camera integrated in the probe permitted to visualize the skin surface. This camera is also useful to control the focalization of the laser on the skin. The spectrograph was equipped with a CCD (Coupled Charge Detector) of 1024×256 elements cooled by Peltier effect, and an 830 grooves/mm grating, which allows to cover a large spectral range from 550 to 3700 cm^−1 in a single shot acquisition, with a spectral resolution of about 6 cm^−1. The excitation source was a 660 nm laser diode and the power at the sample was set to 30 mW in accordance with protection standards for radiation. For protection against laser radiation, protective glasses were used. The 660 nm excitation was chosen as the optimal compromise between generation of parasitic fluorescence and sensitivity of the CCD camera over the whole spectral range. For skin characterization, the measurement of high wavenumber vibrations is important to access information on water content. For data acquisition, the device was controlled by the Labspec 5 software. The Z profiles consist of an in-depth scanning through the skin. Raman spectra were collected at different focus points, from skin surface Z=0 μm to 30 μm (under the skin surface) with 3 μm steps. The measurement depths are indicated in the following table with the corresponding acquisition times, leading to a time of 1 min for a complete profile. In total, 519 Raman profiles were recorded: 2 profiles per condition and for each area (unstained area and brown spot area). Each profile comprises 14 spectra, resulting in recorded 7266 spectra. These measurements were used for the evaluation of the spectroscopic marker of skin background fluorescence. This marker is associated with the degree of skin lightening: A decrease in this marker indicates a positive skin lightening effect, whereas a stability or an increase in this marker means that the product has no lightening effect on the skin. The pre-processing of spectral data was performed using Matlab 7.2 (The MathWorks Inc., USA). Aberrant profiles (bad S/N (signal/noise) ratio, fluorescence, incomplete profile with a large zero offset, saturation . . . ) were excluded from the data base. Each non-aberrant profile was submitted to background corrections, which allowed to clean up the Raman signal of the skin. These background corrections included smoothing spectra with a 9-mm Savitzky-Golay filter, spikes correction, […] the normalization on the intensity of the entire wavenumber range with a vectorial function. A baseline correction was not done in order to preserve the skin background fluorescence, which allows for the extraction of the skin fluorescence markers associated with the degree of skin lightening. After these pre-processing steps, corrected data were used to determine the spectra corresponding to the Stratum corneum surface. […] The skin properties were evaluated using Raman spectroscopy after 28 and 56 days of twice daily application.

[4] = cream with 2% ascorbic acid, Asian women, D 28
[5] = cream with 2% ascorbic acid, Asian women, D 56

Compound: O=C1O[C@H]([C@@H](O)CO)C(O)=C1O [Ascorbic acid, ascorbic acid]
- Firmness effect (R0) Mean +/− SD ([1]; cream with 2% ascorbic acid, Asian women, D 0 (baseline)): 0.283 ± 0.036 arbitrary unit
- Firmness effect (R0) Average variation (%) vs D 0 [1, 4]: −6.9%
- Firmness effect (R0) Mean +/− SD [1, 4]: 0.263 ± 0.032 arbitrary unit
- Firmness effect (R0) Average variation (%) vs D 0 [1, 5]: −6.5%
- Firmness effect (R0) Mean +/− SD [1, 5]: 0.264 ± 0.046 arbitrary unit
- Pigment defect Mean +/− SD ([2]; D 0 (baseline)): 15660 ± 4532 arbitrary unit
- Radiance Mean +/− SD ([2]; D 0 (baseline)): 72.3 ± 1.6 arbitrary unit
- Pigment defect Average volume (mm^3) vs D 0 ([2]; D 28): −11.7%
- Pigment defect Mean +/− SD ([2]; D 28): 13826 ± 4311 arbitrary unit
- Radiance Average variation (%) vs D 0 ([2]; D 28): 0.7%
- Radiance Mean +/− SD ([2]; D 28): 72.7 ± 1.9 arbitrary unit
- Pigment defect Average volume (mm^3) vs D 0 ([2]; D 56): −16.5%
- Pigment defect Mean +/− SD ([2]; D 56): 13078 ± 3731 arbitrary unit
- Radiance Average variation (%) vs D 0 ([2]; D 56): 1.4%
- Radiance Mean +/− SD ([2]; D 56): 73.3 ± 2.3 arbitrary unit
- pigment homogeneity, fold better than the placebo ([2]; day 28): 1.6 fold
- pigment homogeneity, fold better than the placebo ([2]; day 56): 1.8 fold
- Melanin detection Mean +/− SD ([3]; ascorbic acid at 2%, D 0 (baseline)): 49.80 ± 13.13 arbitrary unit
- Melanin detection Mean +/− SD ([3]; ascorbic acid at 2%, D 28): 52.05 ± 11.23 arbitrary unit
- Melanin detection TBX − TB0 ([3]; ascorbic acid at 2%, D 28): +2.25 a.u
- Melanin detection Mean +/− SD ([3]; ascorbic acid at 2%, D 56): 32.28 ± 10.43 arbitrary unit
- Melanin detection TBX − TB0 ([3]; ascorbic acid at 2%, D 56): −17.52 a.u

Compound: O=C(O[C@@H]1Cc2c(O)cc(O)cc2O[C@@H]1c1cc(O)c(O[C@H]2O[C@H](CO)[C@@H](O)[C@H](O)[C@H]2O)c(O)c1)c1cc(O)c(O)c(O)c1 [epigallocatechin gallate 4′-O-α-monoglucoside]
- improvement of skin firmness relative to the placebo cream ([1]; active cream 0.4%, Asian women): up to 21 fold
- Firmness effect (R0) Average variation (%) vs D 0 ([1]; active cream 0.4%, Asian women, D 28): ~8.7%
- Firmness effect (R0) Average variation (%) vs D 0 ([1]; active cream 0.4%, Asian women, D 56): −8.2%
- improvement of skin firmness, times better than placebo ([1]; after 56 days): up to 21 times
- effect on pigment homogeneity, times more pronounced relative to the placebo ([2]; active cream 0.4%, after 28 days): 3.0 times
- reduction of pigment defect (melanin content in pigmented spots area) compared to the placebo ([2]; active cream 0.4%, after 56 days): up to −21.7%
- reduction of skin heterogeneity ([3]; Caucasian volunteers having pigmented spots on their hands): up to −24%
- Melanin detection TBX − TB0 ([3]; product with 0.4% purified preparation, D 28): −10.2 a.u
- Melanin detection TBX − TB0 ([3]; product with 0.4% purified preparation, D 56): −20.4 a.u
